Measurements as given in US6274568A, “Compounds for altering cell surface sialic acids and methods of use therefor” (priority 1999, dated 2001).
“Also recorded” adds a separate entry of the source.

Tests used:
MAG-Fc chimera = experiment: MAG-Fc binding to precursor-treated NG108-15 cells by flow cytometry; type: cell-based
Description: Flow cytometry was used to test binding of a soluble MAG-Fc chimera to precursor-treated and control NG108-15 cells. A chimeric protein consisting of the entire extracellular domain of MAG fused via a three amino acid bridge (TGK) to the human Fc domain was produced using the "pIgPlus" vector (Novagen, Madison, Wis.). A PCR fragment coding for the extracellular domain of MAG was prepared using MAG in pCDM8 as template (Yang et al., 1996a), the T7 5' primer […] (SEQ ID NO:1) and […] (SEQ ID NO:2) as the 3' primer. The fragment was cut with BamHI and HindIII and directionally cloned into the pIgPlus vector. The resulting construct was sequenced to confirm its identity, transfected into COS cells, and the resulting MAG-Fc chimera was purified from the culture medium using Protein G affinity chromatography.
For MAG binding studies, NG108-15 cells were cultured in the presence of sialic acid precursors for the indicated times, then were released from culture dishes using hypertonic Ca^2+ /Mg^2+ -free phosphate-buffered saline (Yang et al., Proc. Natl. Acad. Sci. USA., 93:814, 1996) and resuspended (at […]) in 25 mM Hepes-buffered Hanks balanced salt solution (Bashor, Methods Enzymol., 58:119, 1979) containing 5 mg/ml bovine serum albumin. MAG-Fc (6 μg) was added to 100 μl of the same buffer containing 6 μg fluorescein isothiocyanate-labeled goat anti-human Fc (Jackson Immunoresearch, West Grove, Pa.) and incubated on ice for 1 h 45 min with frequent mixing. Cell suspension (100 μl containing 50,000 cells) was added to the premixed antibody solution and the mixture incubated on ice for 45 min. The cells were then centrifuged for 4 sec at 16,000×g and washed three times by resuspension in 200 μl of buffer with bovine serum albumin and centrifugation. The resulting cell pellet was resuspended in 100 μl buffer with bovine serum albumin and flow cytometry was performed on an Epics Profile II cytometer (Coulter Corp, Hialeah, Fla.).
NG108-15 cells, a mouse neuroblastoma/rat glioma hybrid, display many qualities of cholinergic neurons, including neurite outgrowth, synthesis, storage and release of acetylcholine, and functional synapse formation with muscle cells in vitro. Neurite outgrowth from NG108-15 cells is inhibited by MAG (McKerracher et al., Neuron, 13:805, 1994), an interaction which is reversed by pretreatment of the cells with neuraminidase (Schnaar et al., Ann. N.Y. Acad. Sci., 845:92, 1998). […] Binding was quantified by flow cytometry. […]

NG108-15 cells [1] = experiment: Uptake of mannosamine precursors and conversion to sialic acids (precursor pool, gangliosides, glycoproteins) in NG108-15 cells, HPLC; type: cell-based, mouse neuroblastoma/rat glioma hybrid; conditions: for ganglioside (lipid) sialic acid in the NeuGc form: NG108-15, 20 mM precursor (FIG. 3)
Description: (§1) Cells were harvested using hypertonic Ca^2+ - and Mg^2+ -free phosphate-buffered saline containing 1 mM EDTA, collected by centrifugation, and homogenized in ice-cold water using a Potter-Elvehjem glass/Teflon homogenizer. Methanol (2.6 volumes) was added, the suspension mixed and brought to ambient temperature, then chloroform (1.3 volumes, based on the original homogenate) was added and the suspension mixed vigorously. The suspension was centrifuged 30 min at 2,000×g. After collecting the supernatant, the pellet (containing precipitated proteins) was resuspended in water or concentrated ammonium hydroxide and a portion was used for protein assay (BCA, Pierce, Rockford, Ill.). The supernatant was partitioned by adjusting the chloroform-methanol-water ratio to 4:8:5.6 by addition of water, mixing thoroughly, and centrifuging as above. The upper phase was collected and a portion was subjected to reverse phase chromatography, using Sep-Pak C18 cartridges (Waters, Milford, Mass.), to isolate gangliosides (Schnaar, Methods Enzymol. 230:371, 1994).
(§2) To quantify and identify sialic acids, a portion of resolublized protein, organic/aqueous soluble pool, or reverse-phase purified gangliosides was evaporated to dryness in a 500-μl polypropylene tube and 20 μl of 0.1 M HCl/0.25 M NaCl was added. One Ampliwax bead (Perkin Elmer Corp, Foster City, Calif.) per reaction was added to block evaporation, and the sample hydrolyzed for 3 h at 80° C. Released sialic acids were analyzed by injecting an aliquot (1-10 μl) onto a Dionex high pressure liquid chromatography system (Dionex Corporation, Sunnyvale, Calif.) using a HPIC-AS6 column and a pulsed amperometric detector. Elution solutions were: A, 0.75 mM NaOH; B, 200 mM NaOH; and C, 400 mM sodium acetate in 50 mM NaOH. NeuAc and NeuPr were resolved by elution with 40% A, 50% B, 10% C for 15 min at 1 ml/min. NeuGc was resolved in separate injections using step gradient elution: 0-1.8 min, 18% A, 50% B, 32% C; 2-10 min, 40% B, 60% C. Sialic acids were identified by comparison of their elution time with those of standard NeuAc, NeuPr and NeuGc and were quantified in comparison to a standard curve of commercial NeuAc (for NeuAc and NeuPr) or NeuGc.
(§3) To confirm that the quantified peaks represented sialic acids, 10 μl of acid hydrolysates were treated with 1 μl of 1 M sodium phosphate (pH 7.2) and 10 μl of 0.1 M NaOH. Neutralized samples were incubated at 37° C. for 2 h with or without 0.9 U of N-acetylneuraminic acid aldolase (Sigma), 32 μM NADH and 0.1 μg lactate dehydrogenase. Sialic acid content in the ganglioside and glycoprotein fractions is expressed per mg of total cell protein. Precursor pool sialic acid (sialic acid plus CMP-sialic acid) was calculated by subtracting the ganglioside value from the organic/aqueous pool value, both expressed per mg of cell protein.
Sialic acid is biosynthesized from the precursor sugar N-acetylmannosamine (FIG. 2). In the present invention, sialic acids are converted on live neuronal cells from NeuAc, which is a key determinant for MAG binding, to NeuGc, which is non-permissive for MAG binding. A potential NeuGc precursor, N-glycolylmannosamine monoacetate (ManNGcMA, FIG. 1, R1 =H) was tested for its ability to generate altered sialic acids in neuronal and non-neuronal cells. N-propanoylmannosamine (ManNPr) and other N-acyl mannosamine derivatives have been used to modify glycoprotein associated sialic acids to the corresponding N-acylneuraminic acid. N-propanoyl-mannosamine (ManNPr), was used as a positive control. […] Cell pellets were fractioned into lipid associated, protein associated, and intracellular (lipid and cytoplasmic which may consist of oligosaccharide-bound, free, or CMP-activated sialic acid) sialic acids and hydrolyzed to release sialic acid. The hydrolyzed samples were then analyzed by HPLC to determine sialic acid content. […]

NG108-15 cells [2] = experiment: Cell growth and viability of precursor-treated NG108-15 cells; conditions: 1 mM
Description: Cell growth rates were determined in control cultures (.box-solid.), in cultures treated with 0.08 mM (.circle-solid.), 0.25 mM (.smallcircle.), or 1 mM (.quadrature.) ManNGcPA, and in cultures treated with 0.25 mM (.tangle-solidup.) or 1 mM (Δ) glucose pentaacetate.
NG108-15 cells were maintained in Dulbecco's modified Eagle's medium (high glucose formulation) containing 5% iron-enriched calf serum, 100 μM hypoxanthine, 16 μM thymidine, and 5 μM aminopterin. […] Both cell types were cultured at 37° C. in a humidified atmosphere of 90% air/10% CO2. For treatment with sialic acid precursors, mannosamine derivatives were diluted into the appropriate medium and filter sterilized. […] In experiments testing ManNGcPA, all cells (control and experimental) were grown in the presence of 0.5% (v/v) DMSO, the carrier for ManNGcPA.

Jurkat cells = experiment: Uptake of mannosamine precursors and conversion to sialic acids in Jurkat cells, HPLC; type: cell-based, human; conditions: 48 h
Description: as §1, §2, §3
Sialic acid is biosynthesized from the precursor sugar N-acetylmannosamine (FIG. 2). In the present invention, sialic acids are converted on live neuronal cells from NeuAc, which is a key determinant for MAG binding, to NeuGc, which is non-permissive for MAG binding. A potential NeuGc precursor, N-glycolylmannosamine monoacetate (ManNGcMA, FIG. 1, R1 =H) was tested for its ability to generate altered sialic acids in neuronal and non-neuronal cells. N-propanoylmannosamine (ManNPr) and other N-acyl mannosamine derivatives have been used to modify glycoprotein associated sialic acids to the corresponding N-acylneuraminic acid. N-propanoyl-mannosamine (ManNPr), was used as a positive control. Jurkat human lymphoma cells and NG108-15 cells (rodent neuroblastoma/glioma hybrid cells) were incubated in 20 mM synthetic precursor or control precursor (N-acetylmannosamine, ManNAc) for 48 h, then harvested. Cell pellets were fractioned into lipid associated, protein associated, and intracellular (lipid and cytoplasmic which may consist of oligosaccharide-bound, free, or CMP-activated sialic acid) sialic acids and hydrolyzed to release sialic acid. […]

[3] = test system: myelin-associated glycoprotein (MAG); conditions: cited from earlier work
[4] = NG108-15, 20 mM precursor, 48 h

Molecule: CC(=O)N[C@@H]1C(OC(C)=O)O[C@H](COC(C)=O)[C@@H](OC(C)=O)[C@@H]1OC(C)=O (stereo partly drawn) [ManNAc-tetraacetate, ManNAc tetra-O-acetate, reference compound]
- effect on MAG-Fc binding (MAG-Fc chimera; 1 mM, 96 h): no significant effect on binding

Molecule: CC(=O)OC[C@H]1OC(OC(C)=O)[C@@H](NC=O)[C@@H](OC(C)=O)[C@@H]1OC(C)=O (stereo partly drawn) [ManNFr-OAc, N-formylmannosaminne peracetate]
- glycolipid associated sialic acid as NeuFr (NG108-15 cells [1]; 48 hours): 10%
- levels of intracellular sialic acid in the form of NeuFr (NG108-15 cells [1]; FIG. 13): elevated levels of intracellular sialic acid in the form of N-formyneuraminic acid

Molecule: glucose pentaacetate
- cell growth (NG108-15 cells [2]): more profound decreases in cell growth and viability than the ManNGcPA-treated cells
- cell viability (in words) (NG108-15 cells [2]): more profound decreases in cell growth and viability than the ManNGcPA-treated cells

Molecule: CC(=O)OCC(=O)N[C@@H]1C(O)O[C@H](CO)[C@@H](O)[C@@H]1O (stereo partly drawn) [ManNGcMA, N-Glycolylmannosamine monoacetate]
- incorporation of NeuGc into gangliosides, relative to 1 mM ManNGcPA (NG108-15 cells [1]; 5 mM, 48 h): much less
- incorporation of NeuGc into glycoproteins, relative to 1 mM ManNGcPA (NG108-15 cells [1]; 5 mM, 48 h): much less
- conversion of glycoprotein sialic acids to the NeuGc form (NG108-15 cells [1]; 20 mM precursor, 48 h): ≈ 30%
- decrease in total glycoprotein sialic acid (NG108-15 cells [1]; 20 mM precursor, 48 h): ≈ 40%
- sialic acid precursor pool in the NeuGc form (NG108-15 cells [1]; 20 mM precursor, 48 h): ≈ 70%
- sialic acid precursor pool size compared to untreated control (NG108-15 cells [1]; 20 mM precursor, 48 h): markedly smaller sialic acid precursor pool
- sialic acid precursor pool size (NG108-15 cells [1]; 0.1 or 1.0 mM ManNGcPA, or 5 mM ManNGcMA, 48 h): none of these treatments significantly altered the sialic acid precursor pool size
- ganglioside (lipid) sialic acid in the NeuGc form (NG108-15 cells [1]; 48 h): ≈ 30%
- size of the ganglioside pool (NG108-15 cells [1]; [4]): remained relatively constant
- sialic acid precursor pool as NeuGc (Jurkat cells; 20 mM precursor): nearly all NeuGc
- total sialic acid precursor pool size (Jurkat cells; 20 mM precursor): increase in total sialic acid precursor pool size (comparable to treatment with ManNPr)

Molecule: O=C(CO)N[C@H]1[C@H]([C@H](O)[C@H](O)CO)OC(O)(C(=O)O)C[C@@H]1O (stereo partly drawn) [NeuGc, N-glycolylneuraminic acid]
- support of MAG binding / recognition [3]: but not N-glycolylneuraminic acid (NeuGc) support MAG binding; also recorded: does not support MAG binding

Molecule: O=C(CO)N[C@@H]1C(O)O[C@H](CO)[C@@H](O)[C@@H]1O (stereo partly drawn) [ManNGc, N-glycolylmannosamine]
- decrease in MAG-mediated recognition (MAG-Fc chimera; ng108-15 cells): 60%
- levels of NeuGc in any of the fractions analyzed (NG108-15 cells [1]; 5 mM): did not result in substantial levels of NeuGc
- levels of NeuGc (elevation) (NG108-15 cells [1]; 5 mM in the presence of DMSO, 48 h): did not result in elevated levels of NeuGc
- intracellular sialic acid in the form of NeuGc (NG108-15 cells [1]; 5 mM, 48 h): 13.6%
- protein associated sialic acid as NeuGc (NG108-15 cells [1]; 5 mM, 48 h): 9.5%
- total lipid associated sialic acid as NeuGc (NG108-15 cells [1]; 5.0 mM, 48 h): 5%
- ganglioside (lipid) sialic acid in the NeuGc form (NG108-15 cells [1]; 48 h): ~70%
- intracellular NeuGc (NG108-15 cells [1]; NG108-15 compared with Jurkat, 48 h): substantially lower levels
- glycoconjugate sialic acid in the form of NeuGc (NG108-15 cells [1]; in MAG recognition experiment): 60%
- intracellular NeuGc (Jurkat cells): expected rise in intracellular NeuGc
- lipid sialic acid in the form of NeuGc (Jurkat cells): Approximately 50%
- protein sialic acid in the form of NeuGc (Jurkat cells): Approximately 50%

Molecule: CC(=O)N[C@@H]1C(O)O[C@H](CO)[C@@H](O)[C@@H]1O (stereo partly drawn) [ManNAc, N-acetylmannosamine, reference compound]
- increase in intracellular sialic acid (precursor pool) (NG108-15 cells [1]; 20 mM precursor, 48 h): ≤ 14 fold
- increase in total glycoprotein sialic acid (NG108-15 cells [1]; 20 mM precursor, 48 h): ≈ 2 fold
- levels of intracellular sialic acid (NG108-15 cells [1]; [4]): high levels
- levels of intracellular sialic acid (Jurkat cells; 20 mM precursor): high levels
